Measurements published in patent US20210127719A1, “AROMATIC MIXTURE FOR REDUCING THE ODOR OR TASTE OF BIOGENIC AMINES” (SYMRISE AG, priority 2016, published 2021).

Experiments:
[1] = Panel rating of odor attributes of soy sauce containing biogenic amines, with and without added compound; conditions: panelists n=6-8, scale 0-10, versus product alone
Text: The panelists (n=6-8) rate the attributes animalistic—fishy, metallic as well as woody, sweet, flowery and terpenic, herbal on an unstructured scale from 0 (no taste)—10 (strong taste). Thereby, the order is arbitrary and not known by the panelists beforehand.

[2] = Fish sauce triangle test with odor description
Text: The panelists received the following instruction: Please smell the three samples and mark the sensorially deviating samples with a cross. In any case, one of the samples must be ticked, even if no difference can be noted.

[3] = dosage of the compound 0.5 mg/kg
[4] = dosage of the compound 0.1 mg/kg

Row | SMILES | Odor description (indication of relative change in percent) Animalistic-fishy, metallic [1, 3] [%] | Odor description (indication of relative change in percent) Terpenig, herbal [1, 3] [%] | Odor description (indication of relative change in percent) Woody, sweet, flowery [1, 3] [%] | Odor description (indication of relative change in percent) Animalistic-fishy, metallic ([1]; dosage of the compound 1 mg/kg) [%] | Odor description (indication of relative change in percent) Terpenig, herbal ([1]; dosage of the compound 1 mg/kg) [%] | Odor description (indication of relative change in percent) Woody, sweet, flowery ([1]; dosage of the compound 1 mg/kg) [%] | other results
1 | CC1=CC=C2C(C)(C)CCCC2(C)O1 (centres unmarked) [Cycloionone, 2,5,5,8a-tetramethyl-7,8-dihydro-6H-chromene] | 2.3 | 19.6 | 33.8 | – | – | – | –
2 | CC(=O)CCC1=C(C)CCCC1(C)C [Dihydroionone] | 8.9 | −8.3 | 9.5 | – | – | – | –
3 | CC(=O)/C=C/C1=C(C)CCCC1(C)C [Beta ionone, (E)-4-(2,6,6-trimethylcyclohex-1-en-1-yl)but-3-en-2-one] | – | – | – | – | – | – | Odor description (indication of relative change in percent) Animalistic-fishy, metallic ([1]; dosage of the compound 2 mg/kg): 2.4%; Odor description (indication of relative change in percent) Terpenig, herbal ([1]; dosage of the compound 2 mg/kg): −28.9%; Odor description (indication of relative change in percent) Woody, sweet, flowery ([1]; dosage of the compound 2 mg/kg): 51.9%; Odor description [2, 3]: less silage notes,
4 | CC(=O)/C=C/C1C(C)=CCCC1(C)C (stereo not drawn) [Alpha ionone, (E)-4-(2,6,6-trimethylcyclohex-2-en-1-yl)but-3-en-2-one] | – | – | – | −20.5 | −7.6 | −4.4 | Odor description [2, 4]: bready, earthy,
5 | CC(=O)/C=C/C12OC1(C)CCCC2(C)C (stereo not drawn) [Beta epoxyionone, (E)-4-(1,5,5-trimethyl-7-oxabicyclo[4.1.0]heptan-6-yl)but-3-en-2-one] | −5.4 | 21.1 | 22.8 | – | – | – | –
6 | CC1=CCCC(C)(C)C1/C=C/C(C)O (stereo not drawn) [Alpha-Ionol, (E)-4-(2,6,6-trimethylcyclohex-2-en-1-yl)but-3-en-2-ol] | – | – | – | – | – | – | Odor description [2, 3]: bready, earthy, rounded
7 | CCCC(O)CCC1C(C)CCCC1(C)C (centres unmarked) [Timberol, 1-(2,2,6-trimethylcyclohexyl)hexan-3-ol] | – | – | – | −26.5 | −3.8 | 27.9 | –
8 | CCC(O)CCC1C(C)CCCC1(C)C (centres unmarked) [Madranol, 1-(2,2,6-trimethylcyclohexyl)pentan-3-ol] | – | – | – | −13.9 | −6.0 | 6.6 | –
9 | CC1CCc2nccnc21 (centres unmarked) [5-Methyl-6,7-dihydrocyclopentapyrazine, 5-methyl-6,7-dihydro-5H-cyclopenta[b]pyrazine] | −7.4 | −5.2 | −10.0 | – | – | – | Odor description ([2]; dosage of the compound 0.05 mg/kg): not fishy, less silage notes,
10 | C/C=C/C=C1/C(C)=CC(=O)CC1(C)C [Tabanon, (4E)-4-[(E)-but-2-enylidene]-3,5,5-trimethyl-cyclohex-2-en-1-one] | – | – | – | −18.8 | −8.2 | 13.7 | Odor description [2, 3]: bready, less
11 | CC1=CC(C)C(C=O)C(C)C1 (centres unmarked) [Isocyclocitral] | – | – | – | – | – | – | Odor description ([2]; dosage of the compound 1 mg/kg): bready, rounded,
12 | C/C=C/C(=O)C1C(C)=CCCC1(C)C (stereo not drawn) [Alpha-damascone, (E)-1-(2,6,6-trimethylcyclohex-2-en-1-yl)but-2-en-1-one] | – | – | – | – | – | – | Odor description ([2]; dosage of the compound 0.2 mg/kg): cocoa note, sweet,
13 | CCc1ncc(C)nc1CC [2,3-Diethyl-5-methyl-pyrazine, 2,3-diethyl-5-methyl-pyrazine] | – | – | – | – | – | – | Odor description [2, 4]: metallic, dusty,
